Assay results as given in ChEMBL document CHEMBL1201862, “PubChem BioAssay data set” (2004).
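All cell lines were grown in 96-well plates and treated with compound for 48 hours. The concentration for 50% growth inhibition is given as GI50.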 The source made the active and inactive calls. Rule as the data show it: active = GI50 up to about 1.1 µM and inactive = higher.

Columns and labels:
Experiment in all cases: NCI-60 cell line screen, 48 h
HT-29 = test system: HT-29
LOX IMVI = test system: LOX IMVI
HOP-62 = test system: HOP-62
SF-539 = test system: SF-539
OVCAR-3 = test system: OVCAR-3
Malme-3M = test system: Malme-3M
U-251 = test system: U-251
NCI-H522 = test system: NCI-H522
KM12 = test system: KM12
K562 = test system: K562
RXF 393 = test system: RXF 393
HOP-18 = test system: HOP-18
SF-268 = test system: SF-268
SNB-19 = test system: SNB-19
OVCAR-4 = test system: OVCAR-4
786-0 = test system: 786-0
SF-295 = test system: SF-295
T47D = test system: T47D
BT-549 = test system: BT-549
DU-145 = test system: DU-145

Measured: GI50

[N-]=[N+]=Nc1nnc(CCCCc2nnc(N=[N+]=[N-])o2)o1
inactive: HT-29 > 100 µM | LOX IMVI > 100 µM | HOP-62 > 100 µM | SF-539 > 100 µM | OVCAR-3 > 100 µM | Malme-3M > 100 µM | U-251 > 100 µM | NCI-H522 > 100 µM | KM12 91.4 µM | K562 > 100 µM | RXF 393 > 100 µM | HOP-18 > 100 µM | SF-268 > 100 µM | SNB-19 > 100 µM | OVCAR-4 > 100 µM | 786-0 > 100 µM | SF-295 > 100 µM

N#Cc1cc([N+](=O)[O-])ccc1NC(=O)C(F)(F)F
inactive: HT-29 > 45.5 µM | LOX IMVI > 34.7 µM | HOP-62 > 100 µM | SF-539 > 100 µM | OVCAR-3 > 100 µM | Malme-3M > 100 µM | U-251 > 100 µM | NCI-H522 > 58.5 µM | KM12 > 100 µM | K562 > 60.5 µM | RXF 393 > 56.6 µM | HOP-18 > 85.9 µM | SF-268 > 100 µM | SNB-19 > 100 µM | OVCAR-4 > 100 µM | 786-0 > 49.7 µM | SF-295 > 100 µM

COC(=O)C(=O)C(C(=O)C(=O)Nc1cc([N+](=O)[O-])ccc1[N+](=O)[O-])c1nc2ccc(C(=O)c3ccccc3)cc2nc1O (stereo unspecified)
inactive: HT-29 34 µM | LOX IMVI 19.9 µM | HOP-62 44.5 µM | SF-539 35.2 µM | OVCAR-3 39.2 µM | Malme-3M 61.4 µM | U-251 33.4 µM | NCI-H522 26.7 µM | KM12 28.9 µM | K562 21.3 µM | HOP-18 8.02 µM | SF-268 47.6 µM | SNB-19 50.4 µM | OVCAR-4 49.9 µM | 786-0 95.3 µM | SF-295 31 µM

Cc1cc2c(C)n(Cc3ccc(Cl)cc3Cl)nc2c(C#N)c1C
inactive: HT-29 55.5 µM | LOX IMVI 49.5 µM | HOP-62 20 µM | SF-539 27.2 µM | OVCAR-3 34.7 µM | Malme-3M 24.9 µM | U-251 22.1 µM | NCI-H522 38.5 µM | KM12 > 100 µM | K562 > 100 µM | RXF 393 15.3 µM | HOP-18 40.8 µM | SF-268 32.3 µM | SNB-19 15.7 µM | OVCAR-4 9.89 µM | 786-0 13.6 µM | SF-295 18.2 µM

CC1(C)OC2C(=O)OC(COCc3ccccc3)C2O1 (stereo unspecified)
inactive: HT-29 > 100 µM | LOX IMVI > 100 µM | HOP-62 > 100 µM | SF-539 > 100 µM | OVCAR-3 > 100 µM | Malme-3M > 100 µM | U-251 > 100 µM | KM12 > 100 µM | K562 > 100 µM | RXF 393 > 100 µM | HOP-18 > 100 µM | SF-268 > 100 µM | OVCAR-4 > 100 µM | 786-0 > 100 µM | SF-295 > 100 µM

COc1ccc(C2Oc3c(c(O)cc4c3[C@H](c3ccc(O)cc3O)[C@H](O)C(c3ccc(O)c(O)c3)O4)C[C@@H]2O)cc1O (stereo partly specified)
inactive: HT-29 > 100 µM | LOX IMVI > 100 µM | HOP-62 > 100 µM | SF-539 > 100 µM | OVCAR-3 > 100 µM | Malme-3M > 100 µM | U-251 > 100 µM | NCI-H522 > 100 µM | KM12 > 100 µM | K562 > 100 µM | RXF 393 > 100 µM | HOP-18 > 100 µM | SF-268 > 100 µM | SNB-19 > 100 µM | OVCAR-4 > 100 µM | 786-0 > 100 µM | SF-295 > 100 µM

COc1ccc(OC)c(NC(=O)C(=O)C(C(C)=O)c2nc3ccc(Cl)cc3nc2O)c1 (stereo unspecified)
inactive: HT-29 > 50 µM | LOX IMVI > 50 µM | HOP-62 > 50 µM | SF-539 > 50 µM | OVCAR-3 > 50 µM | Malme-3M > 50 µM | U-251 > 50 µM | KM12 > 50 µM | K562 > 50 µM | RXF 393 > 50 µM | HOP-18 45.2 µM | SF-268 > 50 µM | SNB-19 > 50 µM | OVCAR-4 > 50 µM | 786-0 > 50 µM | SF-295 > 50 µM

Clc1cccc(C2SCc3nc4ccccc4n32)c1 (stereo unspecified)
inactive: HT-29 23.7 µM | LOX IMVI 15.2 µM | HOP-62 20 µM | SF-539 21.1 µM | OVCAR-3 14.4 µM | Malme-3M 22 µM | U-251 16 µM | NCI-H522 10.4 µM | KM12 18.8 µM | K562 14.9 µM | RXF 393 15 µM | HOP-18 18.5 µM | SF-268 28.8 µM | OVCAR-4 27 µM | 786-0 > 10 µM | SF-295 30.3 µM

Cc1csc2nc(-c3ccncc3)cn12
inactive: HT-29 > 100 µM | LOX IMVI > 43.4 µM | HOP-62 > 100 µM | SF-539 > 44 µM | OVCAR-3 > 100 µM | Malme-3M > 100 µM | U-251 > 46.9 µM | NCI-H522 > 82.2 µM | KM12 > 100 µM | K562 > 44 µM | HOP-18 > 57.9 µM | SF-268 > 69.7 µM | SNB-19 > 100 µM | OVCAR-4 > 49.4 µM | 786-0 15.8 µM | SF-295 > 100 µM

CC(C)Oc1cccc(N2C(NCCc3c[nH]c4ccccc34)=Nc3ccncc3S2(=O)=O)c1
inactive: HT-29 5.01 µM | LOX IMVI 52.1 µM | HOP-62 > 100 µM | SF-539 33.7 µM | OVCAR-3 11.7 µM | Malme-3M 32.4 µM | T47D 7.21 µM | U-251 17.9 µM | NCI-H522 7.01 µM | KM12 30.5 µM | BT-549 61.1 µM | K562 3.82 µM | DU-145 22.5 µM | RXF 393 3.46 µM | SF-268 15.7 µM | SNB-19 > 100 µM | OVCAR-4 8 µM | 786-0 2.09 µM | SF-295 20.7 µM

CC(C)(CCCCC(C)(C)NCC1COc2ccccc2O1)NCC1COc2ccccc2O1 (stereo unspecified)
inactive: HT-29 2.47 µM | LOX IMVI 3.33 µM | HOP-62 > 10 µM | SF-539 1.85 µM | OVCAR-3 > 10 µM | Malme-3M 3.15 µM | T47D 7.83 µM | U-251 4.47 µM | NCI-H522 5.51 µM | KM12 > 10 µM | BT-549 > 10 µM | K562 > 10 µM | DU-145 > 10 µM | RXF 393 3.18 µM | SF-268 5.45 µM | SNB-19 > 10 µM | OVCAR-4 > 10 µM | 786-0 3.25 µM | SF-295 9.95 µM

O=C(Nc1ccc(Br)cc1)C(=O)C(C(=O)c1ccc(Cl)c(Cl)c1)C1OC(=O)c2ccccc21 (stereo unspecified)
inactive: HT-29 21.3 µM | LOX IMVI 17.6 µM | HOP-62 15.2 µM | OVCAR-3 18.5 µM | Malme-3M 10.4 µM | U-251 8.97 µM | NCI-H522 18.3 µM | KM12 16.6 µM | K562 12.5 µM | RXF 393 3.5 µM | HOP-18 14.4 µM | SF-268 4.99 µM | SNB-19 16.7 µM | OVCAR-4 16.3 µM | 786-0 15 µM | SF-295 15.2 µM
